Data: patent US7750145B2, “1-substituted-3-β-D-glucopyranosylated nitrogenous hetero-cyclic compounds and medicines containing the same” (Kissei Pharmaceutical Co., Ltd., priority 2004, dated 2010)

tested on: SD rats; test: Assay for the effect on urinary glucose excretion; type: in vivo, rat; settings: overnight fasted male SD rats, oral 1 mg/kg, urine collected for 24 hours
Source text: Assay for the Effect on Urinary Glucose Excretion
As experimental animals, overnight fasted SD rats (CHARLES RIVER LABORATORIES JAPAN. Inc., Crj:CD(SD)IGS, male, 7-8 weeks of age, 180-300 g) were used. The test compound was suspended with 0.5% methylcellulose solution and the suspension was used for administration. On the day before drug administration, the rats were transferred in metabolic cages and fasted from the evening. Throughout the study, the rats were given water ad libitum. The test compound was orally administered at the dose of 1 mg/kg and urine collection was performed for 24 hours after the compound administration. The rats were fed ad libitum from 4 hours after the compound administration. The volume of urine collected was measured and a part of urine was used as a sample for glucose concentration measurement. The samples were diluted as appropriate and the glucose concentrations were measured with Glucose CII-Test WAKO (Wako Pure Chemical Industries, Ltd.) and the amount of urinary glucose excretion per 200 g of body weight was calculated.

Structure (SMILES)	Amount of urinary excretion of glucose in 24 hours [mg/200 g body weight]
CCc1ccc(Cn2cc([C@@H]3O[C@H](CO)[C@@H](O)[C@H](O)[C@H]3O)c3c(C)cccc32)cc1 [Example 1, 1-(4-Ethylbenzyl)-3-(β-D-glucopyranosyl)-4-methyl-1H-indole]	182
COc1ccc(Cn2cc([C@@H]3O[C@H](CO)[C@@H](O)[C@H](O)[C@H]3O)c3c(C)cccc32)cc1 [Example 2]	27
CCc1ccc(Cn2cc([C@@H]3O[C@H](CO)[C@@H](O)[C@H](O)[C@H]3O)c3ccccc32)cc1 [Example 3]	15
CCc1ccc(Cn2cc([C@@H]3O[C@H](CO)[C@@H](O)[C@H](O)[C@H]3O)c3cccc(C)c32)cc1 [Example 5]	76
CCc1ccc(Cn2cc([C@@H]3O[C@H](CO)[C@@H](O)[C@H](O)[C@H]3O)c3cc(C)ccc32)cc1 [Example 7]	122
Cc1ccc2c(c1)c([C@@H]1O[C@H](CO)[C@@H](O)[C@H](O)[C@H]1O)cn2Cc1ccc(OC(C)C)cc1 [Example 11]	33
COc1ccc(Cn2cc([C@@H]3O[C@H](CO)[C@@H](O)[C@H](O)[C@H]3O)c3c(C)cccc32)c(F)c1 [Example 28]	36
CCc1ccc(Cn2cc([C@@H]3O[C@H](CO)[C@@H](O)[C@H](O)[C@H]3O)c3cccc(F)c32)cc1 [Example 61]	98
COc1ccc(Cn2cc([C@@H]3O[C@H](CO)[C@@H](O)[C@H](O)[C@H]3O)c3cccc(F)c32)cc1 [Example 63]	213
OC[C@H]1O[C@@H](c2cn(Cc3ccc(OC(F)F)cc3)c3c(F)cccc23)[C@H](O)[C@@H](O)[C@@H]1O [Example 66]	24
OCCc1ccc(Cn2cc([C@@H]3O[C@H](CO)[C@@H](O)[C@H](O)[C@H]3O)c3cccc(F)c32)cc1 [Example 67]	17
Cc1ccc(Cn2cc([C@@H]3O[C@H](CO)[C@@H](O)[C@H](O)[C@H]3O)c3cccc(Cl)c32)cc1 [Example 70]	173
CCc1ccc(Cn2cc([C@@H]3O[C@H](CO)[C@@H](O)[C@H](O)[C@H]3O)c3cccc(Cl)c32)cc1 [Example 71]	517
COc1ccc(Cn2cc([C@@H]3O[C@H](CO)[C@@H](O)[C@H](O)[C@H]3O)c3cccc(Cl)c32)cc1 [Example 73]	532
COc1ccc(Cn2cc([C@@H]3O[C@H](CO)[C@@H](O)[C@H](O)[C@H]3O)c3cccc(Cl)c32)c(F)c1 [Example 74]	629
CCOc1ccc(Cn2cc([C@@H]3O[C@H](CO)[C@@H](O)[C@H](O)[C@H]3O)c3cccc(Cl)c32)c(F)c1 [Example 75]	18
OCCc1ccc(Cn2cc([C@@H]3O[C@H](CO)[C@@H](O)[C@H](O)[C@H]3O)c3cccc(Cl)c32)cc1 [Example 78]	54
Cc1ccc(Cn2cc([C@@H]3O[C@H](CO)[C@@H](O)[C@H](O)[C@H]3O)c3cc(C)cc(F)c32)cc1 [Example 93]	275
CCc1ccc(Cn2cc([C@@H]3O[C@H](CO)[C@@H](O)[C@H](O)[C@H]3O)c3cc(C)cc(F)c32)cc1 [Example 94]	945
Cc1cc(F)c2c(c1)c([C@@H]1O[C@H](CO)[C@@H](O)[C@H](O)[C@H]1O)cn2Cc1ccc(O)cc1 [Example 95]	40
